{
  "source": "the SangsterLogP compilation",
  "data": [
    {"experiment": "method code SF-AS, from DOI: 10.1016/s0021-9673(00)94589-8, PMID: 3356765", "values": [
      {"molecule": "C#CCOC(=O)Nc1ccc(OCC)c(OCC)c1", "logP": 2.68},
      {"molecule": "COC(=O)Nc1cccc(C#N)c1", "logP": 1.77},
      {"molecule": "CCc1cccc(NC(=O)OC)c1", "logP": 2.72},
      {"molecule": "COC(=O)Nc1ccccc1Br", "logP": 2.25},
      {"molecule": "COC(=O)Nc1ccccc1[N+](=O)[O-]", "logP": 2.07},
      {"molecule": "CCCCc1ccc(NC(=O)OC)cc1", "logP": 3.68},
      {"molecule": "COC(=O)Nc1ccc(C)cc1", "logP": 2.27},
      {"molecule": "COC(=O)Nc1ccccc1OC", "logP": 1.84},
      {"molecule": "CCOc1ccc(NC(=O)OC)cc1", "logP": 2.11},
      {"molecule": "CCc1ccc(NC(=O)OC)cc1", "logP": 2.72},
      {"molecule": "COC(=O)Nc1ccccc1C(F)(F)F", "logP": 2.09},
      {"molecule": "COC(=O)Nc1cccc(OC)c1", "logP": 1.92},
      {"molecule": "COC(=O)Nc1cccc(C(F)(F)F)c1", "logP": 2.74},
      {"molecule": "COC(=O)Nc1ccccc1C", "logP": 1.69},
      {"molecule": "COC(=O)Nc1ccccc1F", "logP": 1.66},
      {"molecule": "COC(=O)Nc1cccc([N+](=O)[O-])c1", "logP": 1.95},
      {"molecule": "CCOc1ccc(NC(=O)OCCC#N)cc1OCC", "logP": 2.13},
      {"molecule": "COC(=O)Nc1cccc(C(C)=O)c1", "logP": 1.63},
      {"molecule": "CCOc1ccccc1NC(=O)OC", "logP": 2.4},
      {"molecule": "COC(=O)Nc1cccc(C)c1", "logP": 2.22},
      {"molecule": "CCOc1ccc(NC(=O)OC(C)C)cc1OCC", "logP": 2.82}
    ]},
    {"experiment": "not given", "values": [
      {"molecule": "COC(=O)Nc1ccccc1Cl", "logP": 2.19},
      {"molecule": "COC(=O)Nc1cccc(I)c1", "logP": 2.88},
      {"molecule": "COC(=O)Nc1ccccc1I", "logP": 2.36},
      {"molecule": "COC(=O)Nc1ccc(C#N)cc1", "logP": 1.67},
      {"molecule": "COC(=O)Nc1ccc(F)cc1", "logP": 2.02},
      {"molecule": "CCOc1ccc(NC(=O)OCC(C)C)cc1OCC", "logP": 3.33},
      {"molecule": "CCOc1ccc(NC(=O)OC)cc1OCC", "logP": 2.2},
      {"molecule": "CCOc1ccc(NC(=O)OC(CBr)CBr)cc1OCC", "logP": 3.39},
      {"molecule": "CCOc1ccc(NC(=O)OCc2ccccc2)cc1OCC", "logP": 3.32},
      {"molecule": "COC(=O)Nc1cccc(Cl)c1", "logP": 2.59},
      {"molecule": "CCOc1ccc(NC(=O)OC2CCCC2)cc1OCC", "logP": 3.41},
      {"molecule": "COC(=O)Nc1ccc(OC)cc1", "logP": 1.77},
      {"molecule": "COC(=O)Nc1ccc(Cl)cc1", "logP": 2.52},
      {"molecule": "CCCOC(=O)Nc1ccc(OCC)c(OCC)c1", "logP": 2.97},
      {"molecule": "C=CCOC(=O)Nc1ccc(OCC)c(OCC)c1", "logP": 2.74},
      {"molecule": "CCOc1ccc(NC(=O)OCCOC)cc1OCC", "logP": 2.22},
      {"molecule": "COC(=O)Nc1ccc([N+](=O)[O-])cc1", "logP": 1.98},
      {"molecule": "CCCCOC(=O)Nc1ccc(OCC)c(OCC)c1", "logP": 3.35},
      {"molecule": "COC(=O)Nc1cccc(F)c1", "logP": 2.17},
      {"molecule": "CCOC(=O)Nc1ccc(OCC)c(OCC)c1", "logP": 2.58},
      {"molecule": "COC(=O)Nc1cccc(Br)c1", "logP": 2.71},
      {"molecule": "CCOc1cccc(NC(=O)OC)c1", "logP": 2.28}
    ]}
  ]
}
